Measurements taken from patent US20160375019A1, “TREATMENT OF CHRONIC GRAFT VERSUS HOST DISEASE WITH SYK INHIBITORS” (Gilead Sciences, Inc., priority 2015, published 2016).

Key:
[1] = system: basophils (CD63 expression) in human whole blood; assay: 384-well HTBS Whole Blood CD63 Basophil Assay; assay type: cell-based; settings: human whole blood (25% blood); for IC50: comparison table; for EC50: Homo sapiens, anti-FceRI mAb activation
Method: Syk activity was assessed in relation to reduced activation of basophils as measured by the expression of CD63 in a human whole blood basophil cellular assay (25% blood). Basophil activation was measured in human whole blood using the Flow CAST kit (Buhlmann Laboratories AG, Baselstrasse, Switzerland) following the protocol provided by the manufacturer with minor modifications. Fresh human whole blood in heparin was collected and delivered same day (AllCells, Emeryville, Calif.). Whole blood samples were incubated with either DMSO (1% final) or serial diluted compounds in DMSO for 60 minutes at 37° C. Basophils were activated using the anti-FceRI mAb and stained with anti-CD63-FITC and anti-CCR3-PE for 20 minutes at 37° C. (per well: 50 μL of whole blood was mixed with 113 μL of stimulation buffer, 8.5 μL anti-FceRI mAb, 8.5 μL Ab stain CCR3-PE/CD63-FITC). Cells were centrifuged at 1000×g for 18 minutes and 150 μL/well of supernatant removed. Red blood cells were lysed and cells fixed by 2 rounds of cell lysing: resuspending cell pellets with 150 μL/well 1× lysis buffer, incubating at room temperature for 10 minutes, and collecting cell pellets by centrifuging for 1200 rpms for 5 minutes. Cells were washed with 150 μL/well wash buffer twice, and resuspended in a final volume of 75 μL/well of wash buffer for either immediate flow cytometery analysis or overnight incubation at 4° C. followed by flow cytometry analysis. Degranulation (basophil activation) was detected by CD63 surface expression on CCR3 positive cells. The percent CD63 positive cells within the gated basophil population were determined and normalized to the DMSO (negative control) and control compound (positive control).

[2] = Kinetic Solubility in phosphate buffer at pH 7.4; assay type: physicochemical; settings: 37 °C, aqueous buffer, kinetic from dmso stock; phosphate buffer pH 7.4
Method: The kinetic solubility of compounds in phosphate buffer at pH 7.4 was assessed. The compounds to be tested were dissolved in dimethylsulfoxide at a 10 mM concentration. Stock samples were diluted, 3 μl with 297 μl of the phosphate buffer at pH 7.4 (DulBecco's phosphate buffered saline (Sigma-Aldrich D8662), overall molarity is 0.149 M and pH 7.43). The samples were then incubated for 24 hours at 37° C. with shaking, the centrifuged and an aliquot taken and tested relative to a known standard concentration of 0.1 mM.

[3] = system: hepatocytes; assay type: in vitro ADME; settings: human
Method: The human […] stability of the compounds as predicted hepatocyte clearance in L/hr/kg was assessed. Compounds to be tested were diluted to 200 μM (4 μl of 10 mM DMSO stock into 196 μl ACN:H2O (50:50). Propranolol was used as a positive control, and buffer only without hepatocytes as 0% control. These were further diluted 4 μl with 891 μl KHB buffer (InVitroGRO catalog number Z99074) to provide 2× dosing solution. To each well of 24 well plate, 250 μl of the 2× dosing solution was added to each well with 250 μl of hepatocytes cells (1×10^6 viable cells/ml per well) or KHB for control samples to achieve a final compound concentration of 1 μM during incubation. The final solvent concentration was 0.01% DMSO and 0.25% ACN. The culture plate was placed on a rocker and incubated at 37° C., 5% CO2. Samples were collected at time 0, 1, 3, and 6 hours. The loss of parent compound was determined using LC-MS methods against a standard curve.

[4] = system: aberrant GVHD B-cell populations; settings: ex vivo; cited from earlier work

## Nc1cncc(-c2cn3ccnc3c(Nc3ccc(N4CCO[C@@H](CO)C4)cc3)n2)n1 [Ex.-3, (R)-(4-(4-((6-(6-aminopyrazin-2-yl)imidazo[1,2-a]pyrazin-8-yl)amino)phenyl)morpholin-2-yl)methanol]
[1]
  IC50: 0.063 µM
[2]
  solubility kinetic at 24 h: > 90 µM
[3]
  Hheps CL: 0.09 L/h/kg

## Cc1c(-c2cncc(N)n2)nc(Nc2ccc(N3CCN(C4COC4)CC3)cc2)c2nccn12 [Ex.-4, 6-(6-aminopyrazin-2-yl)-5-methyl-N-(4-(4-(oxetan-3-yl)piperazin-1-yl)phenyl)imidazo[1,2-a]pyrazin-8-amine]
[1]
  EC50: < 0.2 µM
  IC50: 0.157 µM
[2]
  solubility kinetic at 24 h: > 90 µM
[3]
  Hheps CL: 0.08 L/h/kg

## Nc1cncc(-c2cn3ccnc3c(Nc3ccc(N4CCN(C5COC5)CC4)c(OCCO)c3)n2)n1 [Ex.-5, 2-(5-((6-(6-aminopyrazin-2-yl)imidazo[1,2-a]pyrazin-8-yl)amino)-2-(4-(oxetan-3-yl)piperazin-1-yl)phenoxy)ethanol]
[1]
  EC50: < 0.2 µM
  IC50: 0.12 µM
[2]
  solubility kinetic at 24 h: > 90 µM
[3]
  Hheps CL: 0.07 L/h/kg

## Nc1cncc(-c2cn3ccnc3c(Nc3ccc(N4CCN(CC(CO)CO)CC4)cc3)n2)n1 [Ex.-6, 2-((4-(4-((6-(6-aminopyrazin-2-yl)imidazo[1,2-a]pyrazin-8-yl)amino)phenyl)piperazin-1-yl)methyl)propane-1,3-diol]
[1]
  EC50: < 0.2 µM
  IC50: 0.128 µM
[2]
  solubility kinetic at 24 h: > 90 µM
[3]
  Hheps CL: 0.08 L/h/kg

## COc1cc(Nc2ncc(F)c(Nc3ccc4c(n3)N(COP(=O)(O)O)C(=O)C(C)(C)O4)n2)cc(OC)c1OC [fostamatinib]
[4]
  function and frequency of aberrant GVHD B-cell populations: selectively reduce the function and frequency of aberrant GVHD B-cell populations
